The numbers were not newly measured in patent US10806871B2, “Inhalable dry powders” (priority 2012, dated 2020), which cites them from elsewhere.

Structures are written as SMILES.

For the data set the following is noted: listing, cf. PCT Publication WO/2004/062643; cited from earlier work.

Regarding `Cc1nnc2n1-c1ccc(Cl)cc1C(c1ccccc1)=NC2` [Alprazolam], the “Solubility In Water” value was “Insoluble”.
Turning to `CCOC(=O)C1=C(COCCN)NC(C)=C(C(=O)OC)C1c1ccccc1Cl` (stereo not drawn) [Amlodipine], the “Solubility In Water” value is on record as “Slightly”.
For `Cn1cnc([N+](=O)[O-])c1Sc1ncnc2nc[nH]c12` [Azathioprine], the “Solubility In Water” value was “Insoluble”.
For `CN1CCCC(n2nc(Cc3ccc(Cl)cc3)c3ccccc3c2=O)CC1` (stereo not drawn) [Azelastine], the “Solubility In Water” value is listed as “Insoluble”.
In the case of `C=CCC1(CC(C)C)C(=O)NC(=O)NC1=O` [Butalbital], the “Solubility In Water” value was “Insoluble”.
For the compound `NC(=O)N1c2ccccc2C=Cc2ccccc21` [Carbamazepine], the “Solubility In Water” value is given as “Insoluble”.
With `C[C@@](Cc1ccc(O)c(O)c1)(NN)C(=O)O` [Carbidopa], the “Solubility In Water” value is listed as “Slightly”.
As for `CO/N=C(\C(=O)N[C@@H]1C(=O)N2C(C(=O)O)=C(COC(C)=O)CS[C@H]12)c1csc(N)n1` [Cefotaxime], the “Solubility In Water” value was “Sparingly”.
On to `CC[C@H]1OC(=O)[C@H](C)[C@@H](O[C@H]2C[C@@](C)(OC)[C@@H](O)[C@H](C)O2)[C@H](C)[C@@H](O[C@@H]2O[C@H](C)C[C@H](N(C)C)[C@H]2O)[C@](C)(OC)C[C@@H](C)C(=O)[C@H](C)[C@@H](O)[C@]1(C)O` [Clarithromycin], for which the “Solubility In Water” value was “Insoluble”.
For the compound `CN1CCN(C2=Nc3cc(Cl)ccc3Nc3ccccc32)CC1` [Clozapine], the “Solubility In Water” value is “Slightly”.
Consider `O=C(O)Cc1ccccc1Nc1c(Cl)cccc1Cl` [Diclofenac sodium], for which the “Solubility In Water” value is given as “Sparingly”.
In the case of `OCCN(CCO)c1nc(N2CCCCC2)c2nc(N(CCO)CCO)nc(N3CCCCC3)c2n1` [Dipyridamole], the “Solubility In Water” value was “Slightly”.
`CCCC(CCC)C(=O)O` [Divalproex]: the “Solubility In Water” value is on record as “Slightly”.
Take `CC(CCc1ccc(O)cc1)NCCc1ccc(O)c(O)c1` (stereo not drawn) [Dobutamine]: the “Solubility In Water” value is listed as “Sparingly”.
For `COc1cc2nc(N3CCN(C(=O)C4COc5ccccc5O4)CC3)nc(N)c2cc1OC` (stereo not drawn) [Doxazosin], the “Solubility In Water” value is on record as “Slightly”.
As for `CCOC(=O)[C@H](CCc1ccccc1)N[C@@H](C)C(=O)N1CCC[C@H]1C(=O)O` [Enalapril], the “Solubility In Water” value is recorded as “Sparingly”.
`CCc1cccc2c3c([nH]c12)C(CC)(CC(=O)O)OCC3` (stereo not drawn) [Etodolac]: the “Solubility In Water” value is “Insoluble”.
`COc1cc([C@@H]2c3cc4c(cc3[C@@H](O[C@@H]3O[C@@H]5CO[C@@H](C)O[C@H]5[C@H](O)[C@H]3O)[C@H]3COC(=O)[C@H]23)OCO4)cc(OC)c1O` [Etoposide]: the “Solubility In Water” value is recorded as “Very Slightly”.
`CC(C)(C)NC(=O)[C@H]1CC[C@H]2[C@@H]3CC[C@H]4NC(=O)C=C[C@]4(C)[C@H]3CC[C@]12C` [Finasteride]: the “Solubility In Water” value is “Insoluble”.
Turning to `OC(Cn1cncn1)(Cn1cncn1)c1ccc(F)cc1F` [Fluconazole], the “Solubility In Water” value is “Slightly”.
Take `CC(C(=O)O)c1ccc(-c2ccccc2)c(F)c1` (stereo not drawn) [Flurbiprofen]: the “Solubility In Water” value was “Slightly”.
Regarding `COCCCC/C(=N\OCCN)c1ccc(C(F)(F)F)cc1` [Fluvoxamine], the “Solubility In Water” value is given as “Sparingly”.
As for `CC(C)Cc1ccc(C(C)C(=O)O)cc1` (stereo not drawn) [Ibuprofen], the “Solubility In Water” value was “Insoluble”.
For `CC1=C(/C=C/C(C)=C/C=C/C(C)=C\C(=O)O)C(C)(C)CCC1` [Isotretinoin], the “Solubility In Water” value is “Insoluble”.
For `CCC(C)n1ncn(-c2ccc(N3CCN(c4ccc(OCC5COC(Cn6cncn6)(c6ccc(Cl)cc6Cl)O5)cc4)CC3)cc2)c1=O` (stereo not drawn) [Itraconzole], the “Solubility In Water” value is reported as “Insoluble”.
Turning to `CC(=O)N1CCN(c2ccc(OCC3COC(Cn4ccnc4)(c4ccc(Cl)cc4Cl)O3)cc2)CC1` (stereo not drawn) [Ketoconazole], the “Solubility In Water” value is “Insoluble”.
Take `Nc1nnc(-c2cccc(Cl)c2Cl)c(N)n1` [Lamotrigine]: the “Solubility In Water” value is recorded as “Slightly”.
